Measured values as given in PubChem BioAssay (NCI).
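Method: 48-hour compound exposure of cells in 96-well plates, five concentrations, linear interpolation of endpoints. GI50 is the concentration that inhibits growth by half. TGI: total growth inhibition.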 Where a SMILES comes first, the peptide text is derived from it.

Key:
Assay in all cases: inhibition of tumour cell growth, NCI panel, 48 h
[1] = tested on: A549 NSCLC
[2] = tested on: SW-620 colon
[3] = tested on: HCT-15 colon
[4] = tested on: SK-MEL-5 melanoma
[5] = tested on: OVCAR-8 ovarian
[6] = tested on: SF-539 CNS
[7] = tested on: HT29 colon
[8] = tested on: BT-549 breast
[9] = tested on: K-562 leukemia
[10] = tested on: DU-145 prostate

SMILES	TGI [1]	TGI [2]	TGI [3]	TGI [4]	TGI [5]	TGI [6]	TGI [7]	TGI [8]	TGI [9]	TGI [10]	GI50 [9]
CNc1ncnc(Sc2nc(N)nc3nc[nH]c23)c1[N+](=O)[O-]	> 49.2 µM	20.6 µM	14 µM	13.4 µM	18.5 µM	28.9 µM	> 49.5 µM	20.1 µM	5.66 µM	> 100 µM	
CCC1(C)C=Cc2c(cc(OC)c3c(=O)c4ccccc4n(C)c23)O1 (stereo not drawn)	> 10 µM	> 10 µM	> 10 µM	> 10 µM	> 10 µM	> 10 µM	> 10 µM	> 10 µM	> 10 µM	> 10 µM	
CN(C)CCCNc1c(O)c2c(c(O)c1Cl)C(=O)C=CC2=O	3.52 µM	3.39 µM	3.28 µM	2.82 µM	9.69 µM	3.22 µM	4.27 µM	2.94 µM	> 10 µM	3.27 µM	
OC1(c2ccccc2)CC2CCC(C1)N2CCc1ccccc1 (stereo not drawn)	> 100 µM	> 100 µM	> 100 µM	28.6 µM	> 100 µM	> 100 µM	79.3 µM	> 100 µM	> 100 µM	> 100 µM	
CCOC(=O)C1C(=O)CC(O)(OCC)C(C(=O)OCC)C1c1ccc(OC)cc1 (stereo not drawn)	> 100 µM	> 100 µM	> 100 µM	> 100 µM	> 100 µM		> 100 µM	> 100 µM	> 100 µM	> 100 µM	
Cc1cc2nc3n[nH]c(N)c3nc2cc1C	> 100 µM	> 100 µM	> 100 µM		> 100 µM		> 100 µM	> 100 µM	> 100 µM	> 100 µM	
C=C1C(=O)O[C@@H]2[C@H]3O[C@]3(C)CCC=C(C)CC[C@@H]12	202 µM	34.5 µM	35.3 µM	49.1 µM	43.9 µM	44.6 µM	68.8 µM		130 µM		
CCOC(=O)C1(C(=O)OCC)C[C@]23OCCC(=O)[C@H]2[C@H]2C(=O)OC(C)(C)O[C@]23C1	> 100 µM	> 100 µM	> 100 µM	> 100 µM	> 100 µM	> 100 µM	> 100 µM			> 100 µM	
CNC(=S)/C(=N\Nc1nc[nH]c1C(N)=O)C(N)=S	> 100 µM	> 92 µM	> 100 µM	81.3 µM	> 57.5 µM	> 81.3 µM	> 100 µM	> 100 µM		34.9 µM	
CCOC(=O)c1c(C)n(Cc2ccccc2)c(=O)c2ccccc2c(=O)c2c(=O)ccc(=O)c1=2	> 100 µM	> 100 µM	> 100 µM	> 100 µM	> 100 µM	> 100 µM	> 100 µM		> 100 µM	> 100 µM	
COc1ccc(/C=C2\C=Cc3ccccc32)cc1OC	> 100 µM	> 100 µM	> 100 µM	> 100 µM	> 100 µM	> 100 µM	> 100 µM		> 100 µM	> 100 µM	
Cc1[nH]c2ncn3nc(C(Cl)(Cl)Cl)nc3c2c1Cc1ccccc1	> 100 µM	> 100 µM	> 100 µM	> 100 µM	> 100 µM	> 100 µM	> 100 µM	> 100 µM		> 100 µM	
CSC1=N/C(=C\c2ccc(C)cc2)C(=O)N1CN1CCOCC1	> 100 µM	> 100 µM	> 100 µM	> 100 µM	> 100 µM				> 100 µM	> 100 µM	
CCOC(=O)CN1CCNCCN(CC(=O)OCC)CCNCC1	> 100 µM		> 100 µM	> 100 µM	> 100 µM	> 100 µM	> 100 µM	> 100 µM	> 100 µM	> 100 µM	
c1ccc(COc2ccc(CC3SCCCS3)cc2)cc1	> 100 µM	> 100 µM	> 100 µM	> 100 µM	> 100 µM		> 100 µM		> 100 µM	> 100 µM	
O=c1c(O)c(-c2ccc(O)cc2O)oc2cc(O)cc(O)c12	> 100 µM	> 100 µM	> 100 µM	> 100 µM	> 100 µM	> 100 µM	> 100 µM		> 100 µM	> 100 µM	
CSC(SC)=C1CC(=O)Nc2ccccc2C1=O	> 100 µM		> 100 µM	> 100 µM	> 100 µM	> 100 µM	> 100 µM	> 100 µM	95.8 µM	> 100 µM	
C=C[C@@H]1OC(=O)O[C@H]1CO	> 100 µM	> 100 µM	> 100 µM	> 100 µM	> 100 µM		> 100 µM		> 100 µM	> 100 µM	

SMILES	TGI [1]	TGI [2]	TGI [3]	TGI [4]	TGI [5]	TGI [6]	TGI [7]	TGI [8]	TGI [9]	TGI [10]	GI50 [9]
CC1NC(=O)CNC(=O)CNC(=O)C(Cc2ccc(O)cc2)NC(=O)C(C(C)C)NC(=O)C(C)NC1=O (stereo not drawn) (cyclo(GGAAVY); configuration not given here)	> 100 µM	> 100 µM	> 100 µM	> 100 µM	> 100 µM	> 100 µM	> 100 µM		> 100 µM		> 100 µM
O=C(NN=C1CCN(Cc2ccccc2)CC1)C(O)(c1ccccc1)c1ccccc1	> 100 µM	> 100 µM	> 100 µM	> 100 µM	> 100 µM	> 100 µM	> 100 µM			> 100 µM	
O=C(O)CC(C(=O)O)c1ccccc1[N+](=O)[O-] (stereo not drawn)	> 100 µM	> 100 µM	> 100 µM	> 100 µM	> 100 µM		> 100 µM	> 100 µM	> 100 µM	> 100 µM	
CSc1ccc2c(cc1=O)[C@@H](NC(C)=O)CCc1cc(O)c(O)c(O)c1-2	45 µM	> 100 µM	34.2 µM	> 100 µM	42.3 µM		29.2 µM	56.9 µM		> 100 µM	
CCCCCC(CN1CCOCC1)C(=O)/C=C/c1ccccc1 (stereo not drawn)	12 µM	3.33 µM	4.92 µM	3.42 µM		4.71 µM	10.3 µM		5.85 µM		
Cn1cc(C(=O)c2nccc3c2cnc2ccccc23)ccc1=O	> 100 µM	> 100 µM	> 100 µM	> 100 µM	> 100 µM	> 100 µM	> 100 µM		> 100 µM	> 100 µM	
NCc1ccc(-c2ccc(-c3ccc(-c4ccc(CN)s4)s3)s2)s1	> 100 µM	> 100 µM	> 100 µM	> 100 µM	> 100 µM	> 100 µM	> 100 µM		> 100 µM	> 100 µM	
Cc1cc(-c2ccc(C(=O)O)[nH]2)on1	> 100 µM	> 100 µM	> 100 µM	> 100 µM	> 100 µM		> 100 µM	> 100 µM	> 100 µM	> 100 µM	
CC1=C2C(O)C(C(C)C(=O)NCC(C)C)CCC2(C)C=CC1=O (stereo not drawn)	> 100 µM	> 100 µM	> 100 µM	> 100 µM	> 100 µM	> 100 µM	> 100 µM		> 100 µM		
CN1C2CCC1CC(OC(c1ccccc1)c1ccccc1)C2 (stereo not drawn)	39.7 µM	27.6 µM	78.8 µM	29.1 µM	29.9 µM		23 µM	41.2 µM	34.5 µM	> 100 µM	
CCN1CC2=C(N=c3s/c(=C\c4ccc(Cl)cc4)c(=O)n3C2c2ccc(Cl)cc2)/C(=C/c2ccc(Cl)cc2)C1 (stereo not drawn)	> 100 µM	> 100 µM	> 100 µM	> 100 µM	> 100 µM		> 100 µM	85.8 µM	> 100 µM	> 100 µM	
S=c1[nH]nc(COc2ccc3c(c2)CCCC3)n1/N=C/c1ccc(Cl)cc1	35.8 µM	32.7 µM	41 µM	29.3 µM	31.8 µM	32.8 µM		31.3 µM	50.2 µM	33 µM	
O=C(Cn1c(=O)ccn(C2OC(CO)C(O)C2F)c1=O)c1ccc(F)cc1 (stereo not drawn)	> 100 µM	> 100 µM	> 100 µM	> 100 µM	> 100 µM	> 100 µM	> 100 µM		> 100 µM	> 100 µM	
CC(C)(C)OC(=O)[N+](=N)C(=O)C1CCC(=O)N1C(=O)OCc1ccccc1 (stereo not drawn)	> 100 µM	> 100 µM		> 100 µM	> 100 µM		> 100 µM	> 100 µM	> 100 µM	> 100 µM	
CC(C)=CCC[C@]1(C)CC[C@]2(C)C3CCC(=C(C)C)[C@@H](CCCO)[C@]3(C)CC[C@@]2(C)C1 (stereo partly drawn)	> 100 µM	> 100 µM	> 100 µM	> 100 µM	> 100 µM		> 100 µM	> 100 µM		> 100 µM	
NC(N)=NCCCC(N=c1c2ccccc2n(O)c2ccccc12)C(=O)O (stereo not drawn)	> 100 µM	> 100 µM	> 100 µM	66.6 µM	> 100 µM				> 100 µM		
CC(=O)N=C(N=Nc1c(O)[nH]c2ccc(C)cc12)NC(C)=O	> 100 µM	> 100 µM	> 100 µM	> 100 µM	> 100 µM		> 100 µM	> 100 µM	> 100 µM	> 100 µM	
NC(=O)NC(=O)c1cnccn1	> 100 µM	> 100 µM	> 100 µM			> 100 µM			> 100 µM	> 100 µM	
